We go through 6 compounds from patent US11203577B2, “Sulfonyl-structure-containing triazinone derivatives, their preparation methods and their uses in insect killing and/or bacterium killing” (Nankai University, priority 2017, dated 2021).

One data set has as its system Rice bakanae disease. Kind of data set: In vitro fungicidal activity, PDA colony diameter. In kind it is cell-based. Conditions: read-out: Fungicidal activity (%) Rice bakanae disease.
The subject of a further data set is Wheat head blight. Kind of data set: whole plant or invertebrate. It counts as cell-based. Conditions: Triticum aestivum, read-out: Fungicidal activity (%) Wheat head blight.
The test system of data set [1] is bean aphides (Aphis laburni Kaltenbach). Kind of data set: Test of insecticidal activity against aphides (leaf immersion, checked after 96 h). The following applies: for mortality at 10 mg/kg / mortality at 100 mg/kg / mortality at 600 mg/kg / mortality at 5 mg/kg / mortality at 2.5 mg/kg: Aphis, 96 h, read-out: Mortalities (%) against aphides.
Data set [2] has as its system Cercospora brown spot of peanut. Put plainly: In vitro fungicidal activity, PDA colony diameter. It counts as cell-based. Conditions: 96 h, 50 mg/kg, inhibition of colony diameter, read-out: Fungicidal activity (%) Cercospora brown spot of peanut.
The test system of another data set is Apple ring rot. Put plainly: In vitro fungicidal activity, PDA colony diameter. In kind it is cell-based. Conditions: inhibition of colony diameter. The procedure: (§1) Here, the test is described in an example of Alternaria solani; it can be replaced by other fungi.
(§2) In vitro testing method: Alternaria solani is inoculated to a PDA culture medium and cultured for 7 days, a fungus dish with a diameter of […] is prepared on the periphery of the colony with a punch and inoculated to a PDA culture medium that contains pesticide at a concentration of 50 mg/kg and a PDA culture medium that doesn't contain the pesticide, and are cultured for 4 days respectively; then, the colony diameters are measured, and the inhibition percentages of the pesticides are calculated by comparing with the control sample.

The subject of data set [3] is Capsicum phytophthora blight. Kind of data set: In vitro fungicidal activity, PDA colony diameter. In kind it is cell-based. The following applies: 96 h. The procedure:
as §1, §2

Data set [4] deals with mosquito larvae (Culer pipiens pallens). Kind of data set: Test of insecticidal activity against mosquito larvae (checked after 24 h). The following applies: 24 h, read-out: Mortalities (%) against mosquito larvae.
Experimental: Method of testing against mosquito larvae: the tested mosquito larvae are Culer pipiens pallens, a normal colony fed indoor. About 5 mg compound to be tested is weighed and loaded into a penicillin vial, 5 mL acetone (or an appropriate solvent) is added into the vial, and the vial is oscillated to dissolve the compound; thus, 1,000 ppm mother liquid is obtained. 1 mL mother liquid is weighed and added into a 100 mL beaker filled with 89 mL water, 10 mosquito larvae in the early stage of the 4th instar together with 10 mL feeding solution are poured into the beaker; thus, the concentration of the pesticide solution is 10 ppm (the pesticide solutions with other concentrations are attained by diluting the mother liquid by corresponding times). […] Water solution that contains 0.5 mL test solvent is used as a blank sample.
The subject of data set [5] is Corn southern leaf blight. Kind of data set: In vitro fungicidal activity, PDA colony diameter. It counts as cell-based. The following applies: 50 mg/kg, inhibition of colony diameter; read-out: Fungicidal activity (%) Corn southern leaf blight.
A further data set deals with Maize borers. Kind of data set: Test of insecticidal activity against maize borers (leaf immersion). The following applies: read-out: Mortalities (%) Maize borers.
For the next data set, the system named is Wheat sheath blight. Kind of data set: In vitro fungicidal activity, PDA colony diameter. Conditions: 50 mg/kg, inhibition of colony diameter; read-out: Fungicidal activity (%) Wheat sheath blight. It counts as cell-based.
In a further data set the test system is Watermelon anthracnose. Kind of data set: In vitro fungicidal activity, PDA colony diameter. Conditions: 50 mg/kg, inhibition of colony diameter; read-out: Fungicidal activity (%) Watermelon anthracnose. It counts as cell-based.
The test system of the next data set is Cucumber fusarium wilt. Kind of data set: In vitro fungicidal activity, PDA colony diameter. It counts as cell-based. Conditions: 96 h, 50 mg/kg, inhibition of colony diameter, read-out: Fungicidal activity (%) Cucumber fusarium wilt.
The test system of the next data set is Potato late blight. Kind of data set: microbe, parasite or virus in culture. In kind it is cell-based. Conditions: Phytophthora infestans, 96 h, read-out: Fungicidal activity (%) Potato late blight.
The subject of the next data set is Sclerotinia rot of colza. Put plainly: In vitro fungicidal activity, PDA colony diameter. The following applies: 96 h, 50 mg/kg, inhibition of colony diameter, read-out: Fungicidal activity (%) Sclerotinia rot of colza. It counts as cell-based.
The test system of a further data set is Rice sheath blight. Kind of data set: In vitro fungicidal activity, PDA colony diameter. The following applies: 50 mg/kg, inhibition of colony diameter; read-out: Fungicidal activity (%) Rice sheath blight. It counts as cell-based.
A further data set concerns Cotton bollworms. Put plainly: Test of insecticidal activity against cotton bollworms (pesticide mixed into feedstuff). The following applies: read-out: Mortalities (%) Cotton bollworms.
Another data set has as its system Tomato early blight. Kind of data set: In vitro fungicidal activity, PDA colony diameter. The following applies: read-out: Fungicidal activity (%) Tomato early blight. In kind it is cell-based, Alternaria solani.
A further data set concerns Armyworms. Put plainly: Test of insecticidal activity against armyworms (leaf immersion). The following applies: 600 mg/kg, 3-4 days.
Setting [6] is: 50 mg/kg, inhibition of colony diameter.

Molecules are shown by their SMILES. Like-named read-outs stand apart in the source and are kept apart here.

Experimental for Cotton bollworms: Method of testing against cotton bollworms: the pesticide is mixed into the feedstuff, i.e., 3 mL prepared solution is added into about 27 g freshly prepared feedstuff; thus, required concentration is obtained by diluting by 10 times.

As to `CC1=NNC(=O)N(NS(=O)(=O)Cc2ccccc2)C1` [Ia-7, N-(6-methyl-3-oxo-2,3-dihydro-1,2,4-triazin-4(5H)-yl)-phenylmethylsulfonamide], the inhibition at 50 mg/kg amounted to 38.9% in the data set on Rice bakanae disease (setting [6]); 30% in the data set on Wheat head blight; 41.4% in the data set with Apple ring rot; 20.8% in data set [5]; 63.6% in the data set on Wheat sheath blight; 20.8% with Watermelon anthracnose. The inhibition at 50 mg/kg in the data set on Rice sheath blight amounted to 30.2%; in the data set with Tomato early blight, 33.3%. Moreover, the mortality at 10 mg/kg in data set [1] was 20%; in [4], 70%. In [1], the mortality at 100 mg/kg came out at 75%. The mortality at 600 mg/kg in [1] is 100%; in the data set with Maize borers, 0%; in the data set on Cotton bollworms, 35%. In addition, the inhibition of growth at 50 mg/kg in data set [2] was 15.8%; in [3], 36.7%; with Cucumber fusarium wilt, 0%; with Potato late blight, 33.3%; with Sclerotinia rot of colza it was 31.7%. Further, the “Mortalities (%) Armyworms” value with Armyworms is on record as 0%.

For `CC1=NNC(=O)N(NS(=O)(=O)c2cccc3ccccc23)C1` [Ia-8, N-(6-methyl-3-oxo-2,3-dihydro-1,2,4-triazin-4(5H)-yl)-naphthyl-1-sulfonamide], the inhibition at 50 mg/kg in the data set with Rice bakanae disease (setting [6]) was 7.4%; in the data set on Wheat head blight, 33.3%; in the data set with Apple ring rot, 0%; in data set [5], 8.3%; with Wheat sheath blight, 30.2%; with Watermelon anthracnose, 0%. Moreover, the inhibition at 50 mg/kg was 17.9% in the data set on Rice sheath blight and 20% with Tomato early blight (setting [6]). The mortality at 10 mg/kg in [1] came out at 25%; in data set [4], 15%. The mortality at 100 mg/kg in [1] turned out to be 85%. For the same compound, the results for the mortality at 600 mg/kg (in [1]; in the data set with Maize borers; in the data set with Cotton bollworms) were 90%, 0% and 0%, respectively. Moreover, the inhibition of growth at 50 mg/kg was 19.2% in data set [2]; 26.9% in data set [3]; 20.5% with Cucumber fusarium wilt; 28.6% in the data set on Potato late blight; 16.7% in the data set with Sclerotinia rot of colza. Further, in the data set with Armyworms, the “Mortalities (%) Armyworms” value is on record as 10%.

For the compound `CC1=NNC(=O)N(NS(=O)(=O)c2ccccc2)C1` [Ia-9, N-(6-methyl-3-oxo-2,3-dihydro-1,2,4-triazin-4(5H)-yl)-benzenesulfonamide], the inhibition at 50 mg/kg in the data set with Rice bakanae disease turned out to be 22.2%; in the data set on Wheat head blight, 0%; in the data set on Apple ring rot, 24.1%; in data set [5], 12.5%; in the data set with Wheat sheath blight, 40.9%; in the data set with Watermelon anthracnose, 12.5%. For the same compound, the inhibition at 50 mg/kg in the data set on Rice sheath blight stood at 50.8%; in the data set on Tomato early blight (setting [6]) it was 9.5%. The “insecticidal activity against aphides compared with pymetrozine” value in [1] (5 mg/kg) was “equivalent to the insecticidal activity of pymetrozine”. Moreover, the mortality at 5 mg/kg in data set [1] turned out to be 30%; in data set [4], 80%. The mortality at 10 mg/kg in data set [1] and in [4] was 100% in each case. In [1], the mortality at 100 mg/kg was 100%. The mortality at 600 mg/kg worked out at 100% in [1], 25% in the data set with Maize borers and 30% in the data set with Cotton bollworms. The inhibition of growth at 50 mg/kg in [2] stood at 15.8%; in [3], 26.5%; in the data set with Cucumber fusarium wilt, 0%; with Potato late blight, 22.2%; in the data set with Sclerotinia rot of colza, 40%. Further, in data set [4], the mortality at 2 mg/kg turned out to be 10%. The “Mortalities (%) Armyworms” value in the data set with Armyworms came out at 35%.

For the compound `CC1=NNC(=O)N(NS(=O)(=O)c2ccccc2C)C1` [Ia-10, 2-methyl-N-(6-methyl-3-oxo-2,3-dihydro-1,2,4-triazin-4(5H)-yl)-benzenesulfonamide], the inhibition at 50 mg/kg with Rice bakanae disease (setting [6]) is 13.8%; in the data set on Wheat head blight it was 13.5%; in the data set with Apple ring rot, 10.8%; in data set [5], 37.5%; in the data set on Wheat sheath blight, 14.3%; with Watermelon anthracnose it was 39.2%. The inhibition at 50 mg/kg in the data set on Rice sheath blight was found to be 17.4%; in the data set with Tomato early blight (setting [6]), 9%. Also, the mortality at 2.5 mg/kg in [1] worked out at 25%. The mortality at 5 mg/kg was determined as 90% in data set [1] and 100% in data set [4]. Besides, the mortality at 10 mg/kg in data set [1] and in [4] was 100% throughout. In [1], the mortality at 100 mg/kg came out at 100%. Also, the mortality at 600 mg/kg in data set [1] was determined as 100%; in the data set on Maize borers it was 40%; in the data set with Cotton bollworms it was 50%. For the same compound, the inhibition of growth at 50 mg/kg in data set [2] is 4%; in [3] it was 9.4%; with Cucumber fusarium wilt, 5.9%; in the data set with Potato late blight, 18.7%; with Sclerotinia rot of colza, 21%. Besides, the mortality at 2 mg/kg in data set [4] turned out to be 40%. Moreover, in the data set on Armyworms, the “Mortalities (%) Armyworms” value was 40%.

Turning to `CC1=NNC(=O)N(NS(=O)(=O)c2cccc(C)c2)C1` [Ia-11, 3-methyl-N-(6-methyl-3-oxo-2,3-dihydro-1,2,4-triazin-4(5H)-yl)-benzenesulfonamide], the inhibition at 50 mg/kg with Rice bakanae disease (setting [6]) came out at 10.3%; in the data set on Wheat head blight, 2.7%; in the data set on Apple ring rot, 6.8%; in [5], 18.7%; with Wheat sheath blight, 14.3%; with Watermelon anthracnose, 36.1%. Also, the inhibition at 50 mg/kg in the data set on Rice sheath blight was determined as 16.3%; with Tomato early blight (setting [6]), 1.5%. Besides, the mortality at 2.5 mg/kg in [1] turned out to be 15%. The mortality at 5 mg/kg in [1] was 80%; in [4] it was 100%. The mortality at 10 mg/kg in data set [1] and in data set [4] was 100% throughout. In addition, the mortality at 100 mg/kg in data set [1] is 100%. In addition, the mortality at 600 mg/kg was found to be 100% in data set [1], 15% with Maize borers and 20% with Cotton bollworms. Besides, the inhibition of growth at 50 mg/kg in [2] worked out at 8%; in data set [3], 27.8%; in the data set on Cucumber fusarium wilt, 8.8%; in the data set on Potato late blight it was 9.3%; in the data set on Sclerotinia rot of colza it was 26.3%. For the same compound, the mortality at 2 mg/kg in [4] stood at 20%. The “Mortalities (%) Armyworms” value in the data set with Armyworms is reported as 20%.

For `CC1=NNC(=O)N(NS(=O)(=O)c2c(C)cc(C)cc2C)C1` [Ia-13, 2,4,6-trimethyl-N-(6-methyl-3-oxo-2,3-dihydro-1,2,4-triazin-4(5H)-yl)-benzenesulfonamide], the inhibition at 50 mg/kg was determined as 13.8% in the data set with Rice bakanae disease (setting [6]); 16.2% with Wheat head blight; 10.8% in the data set with Apple ring rot; 28.1% in data set [5]; 4.3% with Wheat sheath blight; 24.6% in the data set on Watermelon anthracnose. Besides, the results for the inhibition at 50 mg/kg in the data set on Rice sheath blight and in the data set on Tomato early blight (setting [6]) were 11.6% and 9%, respectively. In data set [1], the mortality at 2.5 mg/kg is 10%. Besides, the mortality at 5 mg/kg in data set [1] was found to be 60%; in data set [4] it was 100%. Also, the mortality at 10 mg/kg in [1] and in data set [4] was 100% in each case. In addition, the mortality at 100 mg/kg in data set [1] was found to be 100%. For the same compound, the figures for the mortality at 600 mg/kg (in [1]; in the data set on Maize borers; in the data set on Cotton bollworms) were 100%, 45% and 30%, respectively. The inhibition of growth at 50 mg/kg in data set [2] was 12%; in data set [3] it was 22.2%; in the data set with Cucumber fusarium wilt it was 0%; in the data set on Potato late blight, 25%; with Sclerotinia rot of colza it was 21%. The mortality at 2 mg/kg in [4] was determined as 20%. In addition, the “Mortalities (%) Armyworms” value in the data set with Armyworms amounted to 65%.
